PubChem BioAssay (NCI)
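Following 48 hours of exposure in 96-well plates, responses at five concentrations were used to interpolate endpoints linearly. Definition used: TGI = concentration required for complete inhibition of growth.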

What follows are compounds tested on MDA-N (assay: NCI anticancer screen, dose series, 48 h).

Compound | TGI [µM]
O=C1C=C(N2CCN(CCOCCO)CC2)C(=O)c2c(O)ccc(O)c21 | 3.29
CC/C(N)=N\NC(=O)OC(C)(C)C | > 100
CC(=O)NC1C(OCc2ccccc2)OC(CO)C(O)C1OCC(=O)N[C@@H](C)C(=O)N[C@H](CCC(=O)NCCCNc1ccc([N+](=O)[O-])c2[nH]c3ccccc3c(=O)c12)C(N)=O (stereo partly specified) | > 100
CN(C)CCCNC(=O)c1cn2c(ccc3sc4ccccc4c(=O)c32)n1 | 9.88
O=P(O)(O)CN1CCNCCN(CP(=O)(O)O)CC1 | > 72.9
c1cc2c(cc1C1=NCCN1)c1cc(C3=NCCN3)ccc1n2CC1CCCCC1 | > 100
C=C1CC2[C@H](C)C(=O)CCC2(C)C2=C1C1CCC(C(C)CCC(=C)C(C)C(=O)O)C1(C)CC2=O (stereo partly specified) | > 100
CC(C)NC(=O)OCc1c(COC(=O)NC(C)C)c(-c2cc[n+](COC(=O)C3CCCCC3)cc2)n2c1CCC2 | > 100
O=[N+]([O-])C(C=C(n1nnc2ccccc21)n1nnc2ccccc21)=C(n1nnc2ccccc21)n1nnc2ccccc21 | > 100

These compounds were tested on PC-3 prostate (assay: NCI anticancer screen, dose series, 48 h).

Compound | TGI [µM]
CCNC(=S)N/N=C(\C)c1cccc(C)n1 | > 100
CN1CCN([C@H]2C[C@H]3[C@@H]4CC=C5C[C@@H](O)CC[C@]5(C)[C@H]4CC[C@]3(C)[C@H]2O)CC1 | > 86.6
CC1C2(C)OCC(C#N)(C(=N)O2)C1(C#N)C#N (stereo unspecified) | 83.3
C=CC[C@H](N=C(SC)SC)C(=O)N1C(=O)N(C)[C@@H](C)[C@H]1c1ccccc1 | > 100
CC(=O)c1sc2[n+](c1C)C(=O)/C(=C\c1ccccc1Cl)S2 | 49.9
CCCCCCCCCCCCOP(=O)(O)OP(=O)(O)OCC1OC(n2cc(C)c(=O)[nH]c2=O)CC1O (stereo unspecified) | > 100
O=C1c2cc([N+](=O)[O-])sc2C(=O)c2c([N+](=O)[O-])csc21 | 3.09
C[C@H](CCC(=O)NCC(=O)O)[C@H]1CC[C@H]2[C@@H]3[C@H](O)C[C@@H]4C[C@H](O)CC[C@]4(C)[C@H]3CC[C@]12C | > 100
CCOc1cc2c(cc1O)C(N)C[C@@H]1[C@@H]2CC[C@]2(C)[C@@H](O)CC[C@@H]12 (stereo partly specified) | > 100
CC(C)C(NC(=O)C(Cc1ccccc1)NC(=O)[C@H]1CCC[C@H]1NC(=O)C(Cc1ccc(OC(C)(C)C)cc1)NC(=O)OC(C)(C)C)C(N)=O (stereo partly specified) | 54
Cc1ccc(NC(=O)CC(=O)n2nc(C)c(N=Nc3cccc(C)c3)c2C)cc1 | > 100
N#C/C(=C\c1ccc2[nH]ccc2c1)C(=O)c1ccc(O)c(O)c1 | > 100
O=[N+]([O-])/C(C(Cl)=C(Cl)Cl)=C(/Nc1ccccc1)Sc1ccccc1 | 34.9
Cc1ccc2c(c1C)C(=O)/C(=C/c1cccc(C)c1C(=O)O)C2 | > 100
O=C1N(c2ccccc2)C(=S)/C(=C/c2ccc(Cl)cc2)N1c1ccc(Cl)cc1 | > 100
O=C1C=C(N2CCN(CCOCCO)CC2)C(=O)c2c(O)ccc(O)c21 | 10.7
CC/C(N)=N\NC(=O)OC(C)(C)C | > 100
CC(=O)NC1C(OCc2ccccc2)OC(CO)C(O)C1OCC(=O)N[C@@H](C)C(=O)N[C@H](CCC(=O)NCCCNc1ccc([N+](=O)[O-])c2[nH]c3ccccc3c(=O)c12)C(N)=O (stereo partly specified) | > 100
CN(C)CCCNC(=O)c1cn2c(ccc3sc4ccccc4c(=O)c32)n1 | 9.43
O=P(O)(O)CN1CCNCCN(CP(=O)(O)O)CC1 | > 100
c1cc2c(cc1C1=NCCN1)c1cc(C3=NCCN3)ccc1n2CC1CCCCC1 | > 100
C=C1CC2[C@H](C)C(=O)CCC2(C)C2=C1C1CCC(C(C)CCC(=C)C(C)C(=O)O)C1(C)CC2=O (stereo partly specified) | > 100
CC(C)NC(=O)OCc1c(COC(=O)NC(C)C)c(-c2cc[n+](COC(=O)C3CCCCC3)cc2)n2c1CCC2 | > 100
O=[N+]([O-])C(C=C(n1nnc2ccccc21)n1nnc2ccccc21)=C(n1nnc2ccccc21)n1nnc2ccccc21 | > 100

These compounds were tested on HT29 colon (assay: NCI anticancer screen, dose series, 48 h).

Compound | TGI [µM]
CCNC(=S)N/N=C(\C)c1cccc(C)n1 | > 100
CN1CCN([C@H]2C[C@H]3[C@@H]4CC=C5C[C@@H](O)CC[C@]5(C)[C@H]4CC[C@]3(C)[C@H]2O)CC1 | 28.6
CC1C2(C)OCC(C#N)(C(=N)O2)C1(C#N)C#N (stereo unspecified) | 35.3
C=CC[C@H](N=C(SC)SC)C(=O)N1C(=O)N(C)[C@@H](C)[C@H]1c1ccccc1 | > 100
CC(=O)c1sc2[n+](c1C)C(=O)/C(=C\c1ccccc1Cl)S2 | 39.2
CCCCCCCCCCCCOP(=O)(O)OP(=O)(O)OCC1OC(n2cc(C)c(=O)[nH]c2=O)CC1O (stereo unspecified) | > 100
C[C@H](CCC(=O)NCC(=O)O)[C@H]1CC[C@H]2[C@@H]3[C@H](O)C[C@@H]4C[C@H](O)CC[C@]4(C)[C@H]3CC[C@]12C | > 100
CCOc1cc2c(cc1O)C(N)C[C@@H]1[C@@H]2CC[C@]2(C)[C@@H](O)CC[C@@H]12 (stereo partly specified) | > 100
CC(C)C(NC(=O)C(Cc1ccccc1)NC(=O)[C@H]1CCC[C@H]1NC(=O)C(Cc1ccc(OC(C)(C)C)cc1)NC(=O)OC(C)(C)C)C(N)=O (stereo partly specified) | 53.3
Cc1ccc(NC(=O)CC(=O)n2nc(C)c(N=Nc3cccc(C)c3)c2C)cc1 | > 100
N#C/C(=C\c1ccc2[nH]ccc2c1)C(=O)c1ccc(O)c(O)c1 | > 100
O=[N+]([O-])/C(C(Cl)=C(Cl)Cl)=C(/Nc1ccccc1)Sc1ccccc1 | 48.7
Cc1ccc2c(c1C)C(=O)/C(=C/c1cccc(C)c1C(=O)O)C2 | > 100
O=C1N(c2ccccc2)C(=S)/C(=C/c2ccc(Cl)cc2)N1c1ccc(Cl)cc1 | > 100
O=C1C=C(N2CCN(CCOCCO)CC2)C(=O)c2c(O)ccc(O)c21 | 15.5
CC/C(N)=N\NC(=O)OC(C)(C)C | > 100
CC(=O)NC1C(OCc2ccccc2)OC(CO)C(O)C1OCC(=O)N[C@@H](C)C(=O)N[C@H](CCC(=O)NCCCNc1ccc([N+](=O)[O-])c2[nH]c3ccccc3c(=O)c12)C(N)=O (stereo partly specified) | > 100
CN(C)CCCNC(=O)c1cn2c(ccc3sc4ccccc4c(=O)c32)n1 | 2.74
O=P(O)(O)CN1CCNCCN(CP(=O)(O)O)CC1 | > 100
c1cc2c(cc1C1=NCCN1)c1cc(C3=NCCN3)ccc1n2CC1CCCCC1 | > 100
C=C1CC2[C@H](C)C(=O)CCC2(C)C2=C1C1CCC(C(C)CCC(=C)C(C)C(=O)O)C1(C)CC2=O (stereo partly specified) | > 100
CC(C)NC(=O)OCc1c(COC(=O)NC(C)C)c(-c2cc[n+](COC(=O)C3CCCCC3)cc2)n2c1CCC2 | > 100
O=[N+]([O-])C(C=C(n1nnc2ccccc21)n1nnc2ccccc21)=C(n1nnc2ccccc21)n1nnc2ccccc21 | > 100
